What was measured:
Assay type in all cases: cell-based
MV-4-11 cells = experiment: Antiproliferative activity, CCK-8 assay; details: Homo sapiens, MV4-11; 144 hours incubation, CCK-8, absorbance at 450 nm
Protocol: (§1) The cell models used in this example were human hematologic tumor cells, including NCI-H929, RPMI-8226, MV-4-11, U937 and WSU-DLCL-2. Some of the compounds of the present invention were selected to determine their inhibitory activity against the proliferation of NCI-H929, RPMI-8226, MV-4-11, U937, and WSU-DLCL-2 cells.
(§2) • ① The selected compounds were dissolved in DMSO to prepare 10 mM stock solutions. Compounds used within three months should be stored at room temperature in a desiccator; others could be stored at -20°C for long-term storage. • ② The above stock solutions and the positive reference compound pomalidomide were diluted with DMSO. Their initial concentrations were 10 µM. In the experiments of NCI-H929 and RPMI-8226 cells, 3-fold serial dilution with 11 concentration points was performed, with the lowest concentration of 0.00047 µM. The resulting solutions were shaken on a shaker for 5 minutes.
(§3) • ① The NCI-H929, RPMI-8226, MV-4-11, U937, and WSU-DLCL-2 cells in logarithmic growth phase were inoculated in a 96-well plate, 20,000 to 30,000 cells per well, and the plate was pre-cultured for 24 hours in an incubator (at 37°C and 5% CO2). • ② The culture medium in the plate was replaced, and the compounds and the positive control with corresponding concentrations were added to the plated at a volume of 50 µl. • ③ The plate was incubated for 144 hours in an incubator, then 15 µl of CCK-8 solution was added to each well, and incubated in the incubator for another 1-4 hours. • ④ The absorbance at 450 nm was measured using a microplate reader.
(§4) • ① Calculating % Inhibition: [formula] • ② Calculating IC50 value of compound and plotting dose-response curve: The IC50 value was calculated by fitting the % Inhibition and the logarithm of compound concentration to a nonlinear regression (dose response-variable slope) by using GraphPad 6.0. • Y = Bottom + (Top - Bottom) / (1 + 10^((LogIC50 - X) * HillSlope)) • X: log of inhibitor concentration; Y: % Inhibition.
(§5) After calculating % Inhibition, a dose-response curve was plotted with the logarithm of the test compound concentration as the x-axis and the average cell viability as the y-axis, and the IC50 value was obtained by fitting.

WSU-DLCL-2 cells = experiment: Antiproliferative activity, CCK-8 assay; details: Homo sapiens, WSUDLCL2; 144 hours incubation, CCK-8, absorbance at 450 nm
Protocol: as §1, §2, §3, §4, §5

RPMI-8226 cells = experiment: Antiproliferative activity, CCK-8 assay; details: Homo sapiens, 144 hours incubation, CCK-8, absorbance at 450 nm
Protocol: as §1, §2, §3, §4, §5

NCI-H929 cells = experiment: Antiproliferative activity, CCK-8 assay; details: Homo sapiens, 144 hours incubation, CCK-8, absorbance at 450 nm, read-out: IC50 (µM) H-929
Protocol: as §1, §2, §3, §4, §5

U937 cells = experiment: Antiproliferative activity, CCK-8 assay; details: Homo sapiens, U-937; 144 hours incubation, CCK-8, absorbance at 450 nm
Protocol: as §1, §2, §3, §4, §5

[1] = test system: RPMI-8226-pomalidomide-R cells; experiment: Antiproliferative activity against resistant cells, CCK-8 assay; details: Homo sapiens, 144 hours incubation
Protocol: (§6) In this example, lenalidomide-resistant human multiple myeloma cells, including NCI-H929 (NCI-H929-Lenalidomide-R) and RPMI-8226 (RPMI-8226-Lenalidomide-R), and pomalidomide-resistant human multiple myeloma cells, including NCI-H929 (NCI-H929-pomalidomide-R) and RPMI-8226 (RPMI-8226-pomalidomide-R), were selected as cell models to determine the inhibitory activity of compound I-8 of the present invention against the proliferation of the resistant cells.
(§7) • ① I-8 was dissolved in DMSO to prepare a 10 mM stock solution. Compounds used within three months should be stored at room temperature in a desiccator; others could be stored at -20°C for long-term storage. • ② The I-8 stock solution and the reference compounds lenalidomide and pomalidomide were all diluted with DMSO. Their initial concentrations were 10 µM. In the experiments of lenalidomide-resistant human multiple myeloma cells (NCI-H929 (NCI-H929-Lenalidomide-R) and RPMI-8226 (RPMI-8226-Lenalidomide-R) and pomalidomide-resistant human multiple myeloma cells (NCI-H929 (NCI-H929-pomalidomide-R) and RPMI-8226 (RPMI-8226-pomalidomide-R), 3-fold serial dilution with 11 concentration points was performed, with the lowest concentration of […]. The resulting solutions were shaken on a shaker for 5 minutes.
(§8) • ① The NCI-H929-Lenalidomide-R, RPMI-8226-Lenalidomide-R, NCI-H929-pomalidomide-R, and RPMI-8226-pomalidomide-R cells in logarithmic growth phase were inoculated in a 96-well plate, 20,000 to 30,000 cells per well, and the plate was pre-cultured for 24 hours in an incubator (at 37°C and 5% CO2). • ® The culture medium in the plate was replaced, and the compounds and the positive controls with corresponding concentrations were added to the plated at a volume of 50 µL. • ③ The plate was incubated for 144 hours in an incubator, then 15 µL of CCK-8 solution was added to each well, and the plate was incubated in the incubator for another 1-4 hours. • ④ The absorbance at 450 nm was measured using a microplate reader.
as §4, with “6.0.” for “6.0. •”, “(Top−Bottom)/(1+10^(∧)((LogIC50−X)*HillSlope)) [formula]” for “(Top - Bottom) / (1 + 10^((LogIC50 - X) * HillSlope)) •”
as §5

[2] = test system: NCI-H929-Lenalidomide-R cells; experiment: as above; details: Homo sapiens, 144 hours incubation
Protocol: as §6, §7, §8
as §4, with “6.0.” for “6.0. •”, “(Top−Bottom)/(1+10^(∧)((LogIC50−X)*HillSlope)) [formula]” for “(Top - Bottom) / (1 + 10^((LogIC50 - X) * HillSlope)) •”
as §5

[3] = test system: RPMI-8226-Lenalidomide-R cells; experiment: as above; details: Homo sapiens, 144 hours incubation
Protocol: as §6, §7, §8
as §4, with “6.0.” for “6.0. •”, “(Top−Bottom)/(1+10^(∧)((LogIC50−X)*HillSlope)) [formula]” for “(Top - Bottom) / (1 + 10^((LogIC50 - X) * HillSlope)) •”
as §5

[4] = test system: NCI-H929-pomalidomide-R cells; experiment: as above; details: Homo sapiens, 144 hours incubation
Protocol: as §6, §7, §8
as §4, with “6.0.” for “6.0. •”, “(Top−Bottom)/(1+10^(∧)((LogIC50−X)*HillSlope)) [formula]” for “(Top - Bottom) / (1 + 10^((LogIC50 - X) * HillSlope)) •”
as §5

IC50 (MV-4-11 cells) [µM] | IC50 (RPMI-8226 cells) [µM] | IC50 (NCI-H929 cells) [µM] | IC50 (U937 cells) [µM] | IC50 [1] [µM] | IC50 [2] [µM] | IC50 [3] [µM] | IC50 [4] [µM] | Structure (SMILES) | IC50 (WSU-DLCL-2 cells) [µM]
0.39 | 0.457 | > 10 | > 10 |  |  |  |  | CN1Cc2c(cccc2[N+](=O)[O-])C(=O)N1C1CCC(=O)NC1=O (centres unmarked) [I-9, 3-(3-methyl-5-nitro-1-oxo-3,4-dihydrophthalazin-2(1H)-yl)piperidin-2,6-dione] | 0.23
0.294 | 2.97 | 2.54 | 4.13 |  |  |  |  | CN1Cc2cc([N+](=O)[O-])ccc2C(=O)N1C1CCC(=O)NC1=O (centres unmarked) [I-11, 3-(3-methyl-6-nitro-1-oxo-3,4-dihydrophthalazin-2(1H)-yl)piperidin-2,6-dione] | 2.65
> 10 | 0.204 | 0.85 | 1.11 |  |  |  |  | CN1Cc2c(cc(F)cc2[N+](=O)[O-])C(=O)N1C1CCC(=O)NC1=O (centres unmarked) [I-13, 3-(7-fluoro-3-methyl-5-nitro-1-oxo-3,4-dihydrophthalazin-2(1H)-yl)piperidin-2,6-dione] | 0.88

Continued, molecule first:

Structure (SMILES) | IC50 (MV-4-11 cells) [µM] | IC50 (RPMI-8226 cells) [µM] | IC50 (NCI-H929 cells) [µM] | IC50 (U937 cells) [µM] | IC50 [1] [µM] | IC50 [2] [µM] | IC50 [3] [µM] | IC50 [4] [µM] | IC50 (WSU-DLCL-2 cells) [µM]
Nc1cccc2c1CN(C1CCC(=O)NC1=O)C2=O (centres unmarked) [Lenalidomide] |  |  |  |  | > 100 | > 100 | > 100 | > 100 | 
CN1Cc2c(NCc3ccc(CN4CCN(c5ccc(C#N)cc5)CC4)cc3)cccc2C(=O)N1C1CCC(=O)NC1=O (centres unmarked) [I-7] | 0.0155 | 0.442 | 0.028 | 0.0348 |  |  |  |  | 0.053
CN1Cc2cc(N)ccc2C(=O)N1C1CCC(=O)NC1=O (centres unmarked) [I-10, 3-(6-amino-3-methyl-1-oxo-3,4-dihydrophthalazin-2(1H)-yl)piperidin-2,6-dione] | 0.215 | 0.38 | 5.85 | > 10 |  |  |  |  | 0.7

Source: EP4722203A1, “3,4-DIHYDROPHTHALAZIN-1(2H)-ONE DERIVATIVE, AND PREPARATION METHOD THEREFOR AND USE THEREOF” (Academy of Military Medical Sciences, priority 2023, dated 2024)
